Data on 40 molecules can be found in patent US20180362543A1, “HIV REPLICATION INHIBITOR” (Shionogi & Co., Ltd., priority 2013, published 2018).

One may read the EC50 as the concentration giving half of the maximal effect. A lower EC50 goes with an effect from little substance.

In the first assay the test system is HIV (HTLV-III B strain). Description: HIV replication inhibition assay (MTT, MT-4 cells). In kind it is cell-based. Conditions: 4 days culture, concentration at which cell cytotoxicity by virus is inhibited 50%. As for the experimental part:
HIV (HTLV-III B strain) persistent infected human T cell strain Molt-4 clone 8 was cultured in 10% Fetal Bovine Serum-containing RPMI-1640 medium and the supernatant was filtrated, then the virus titer was measured and the solution was stored at −80° C. Each anti-human immunodeficiency virus active substance was diluted with the above cultured medium to the designated concentration, which was dispensed into 96 well micro plate by 50 μL. Next, a MT-4 cell suspended liquid was dispensed by 100 μL (2.5×10^4 cells), then the above HIV-containing supernatant diluted with the above cultured medium was added thereto by 50 μL (60 pfu (plaque forming unit)).
The obtained mixture was cultured at 37° C. in CO2 incubator for four days, then 3-(4,5-dimehylthiazole-2-yl)-2,5-diphenyltetrazolynium bromide (MTT) 5 mg/mL in PBS was added to each well by 30 μL, followed by 1 hr-cultivation. In this step, as formazan was precipitated by reduction of MTT in living cells, the cell supernatant was removed from all well by 150 μL, then a 150 μL of solution (10% Triton X-100 and […]) was added thereto, followed by shaking with a plate mixer, to elute formazan. The formazan was measured with a microreader at OD: 560 nm and 690 nm (wavelength) and the result was compared with the reference. EC50 means the compound concentration at which cell cytotoxicity by virus is inhibited 50%.
For `Cc1cc(Cl)ccc1-c1c(C)c2c(c(C)c1[C@H](OC(C)(C)C)C(=O)O)N(S(C)(=O)=O)Cc1c(F)ccc(F)c1-2` [Compound 317], the EC50 was 70 nM.

Consider `Cc1cc(Cl)ccc1-c1c(C)c2c(c(C)c1[C@H](OC(C)(C)C)C(=O)O)N(S(C)(=O)=O)Cc1c(F)ccc(F)c1-2` [Compound 318], for which a half-maximal response (EC50) required 17 nM.

Staying with this assay, now noted: Human immunodeficiency virus 1, MT4, 96 h, 4 days culture, concentration at which cell cytotoxicity by virus is inhibited 50%.
The molecule `Cc1ccc(-c2c(C)c3c(c(C)c2[C@H](OC(C)(C)C)C(=O)O)S(=O)(=O)Cc2cc(F)cc(F)c2-3)cc1` [Compound 298] displayed an EC50 of 30 nM.

`Cc1c(-c2cc(F)c3c(c2F)CCCO3)c([C@H](OC(C)(C)C)C(=O)O)c(C)c2c1-c1c(F)ccc(F)c1CN2S(C)(=O)=O` [Compound 299] came in with an EC50 of 26 nM.

For `Cc1c(-c2c(C)c3c(c(C)c2[C@H](OC(C)(C)C)C(=O)O)N(S(C)(=O)=O)Cc2ccccc2-3)ccc2c1NCCO2` [Compound 300], the EC50 was below 7.8 nM.

Regarding `Cc1ccc(-c2c(C)c3c(c(C)c2[C@H](OC(C)(C)C)C(=O)O)N(S(C)(=O)=O)Cc2cc(Cl)ccc2-3)cc1` [Compound 301], the EC50 was 4.9 nM.

`Cc1ccc(-c2c(C)c3c(c(C)c2[C@H](OC(C)(C)C)C(=O)O)N(S(C)(=O)=O)Cc2cccc(Cl)c2-3)cc1` [Compound 302]: the EC50 was found to be 28.1 nM.

`Cc1ccc(-c2c(C)c3c(c(C)c2[C@H](OC(C)(C)C)C(=O)O)N(S(C)(=O)=O)Cc2c(F)ccc(F)c2-3)c(F)c1` [Compound 304] displayed an EC50 of 5.2 nM.

Turning to `Cc1ccc(-c2c(C)c3c(c(C)c2[C@H](OC(C)(C)C)C(=O)O)N(S(C)(=O)=O)Cc2oc(C)nc2-3)cc1` [Compound 305], the EC50 is 28 nM.

On to `COc1nc2c(s1)CN(S(C)(=O)=O)c1c(C)c([C@H](OC(C)(C)C)C(=O)O)c(-c3ccc(C)cc3)c(C)c1-2` [Compound 307], for which the EC50 is 51 nM.

With `Cc1c(-c2c(C)c3c(c(C)c2[C@H](OC(C)(C)C)C(=O)O)N(S(C)(=O)=O)Cc2cc(F)cnc2-3)ccc2c1NCCO2` [Compound 310], the response was half-maximal at 25 nM (EC50).

As for `Cc1c(-c2ccc3cccnc3c2C)c([C@H](OC(C)(C)C)C(=O)O)c(C)c2c1-c1c(F)ccc(F)c1CN2S(C)(=O)=O` [Compound 311], it took 28 nM to reach a half-maximal effect (EC50).

As for `Cc1c(-c2c(C)c3c(c(C)c2[C@H](OC(C)(C)C)C(=O)O)N(S(C)(=O)=O)Cc2ccc(F)c(F)c2-3)ccc2c1NCCO2` [Compound 314], a half-maximal effect (EC50) was put at 5.3 nM.

`Cc1ccc(-c2c(C)c3c(c(C)c2[C@H](OC(C)(C)C)C(=O)O)N(S(C)(=O)=O)Cc2cc(C)cnc2-3)cc1` [Compound 315] registered an EC50 below 7.8 nM.

In turn, `Cc1ccc(-c2c(C)c3c(c(C)c2[C@H](OC(C)(C)C)C(=O)O)N(S(C)(=O)=O)Cc2c(C(F)(F)F)ccnc2-3)cc1` [Compound 319] showed an EC50 of 8.4 nM.

`Cc1c(-c2c(C)c3c(c(C)c2[C@H](OC(C)(C)C)C(=O)O)N(S(C)(=O)=O)Cc2cc(F)cnc2-3)ccc2c1CCCO2` [Compound 320] showed an EC50 of 3.1 nM.

Regarding `Cc1c(-c2ccc3c(c2C)N(C)CCO3)c([C@H](OC(C)(C)C)C(=O)O)c(C)c2c1-c1c(F)ccc(F)c1CN2S(C)(=O)=O` [Compound 321], the EC50 came out at 15 nM.

With `COc1cc2c(cn1)-c1c(C)c(-c3ccc4c(c3C)NCCO4)c([C@H](OC(C)(C)C)C(=O)O)c(C)c1N(S(C)(=O)=O)C2` [Compound 322], the EC50 stood at 11 nM.

The same assay, now with this note: Human immunodeficiency virus 1, MT4, 96 h, Table A-5, four days.
On to `Cc1c(-c2ccc3c(c2)CCCO3)c([C@H](OC(C)(C)C)C(=O)O)c(C)c2c1-c1c(F)cccc1CN2S(C)(=O)=O` [Compound 266], for which a half-maximal response (EC50) required 7.9 nM.

The molecule `Cc1c(-c2c(C)c3c(c(C)c2[C@H](OC(C)(C)C)C(=O)O)N(S(C)(=O)=O)Cc2cccc(F)c2-3)cc(F)c2c1CCCO2` [Compound 273] came in with an EC50 of 4.5 nM.

With `COc1ccc(-c2c(C)c3c(c(C)c2[C@H](OC(C)(C)C)C(=O)O)N(S(C)(=O)=O)Cc2cccc(F)c2-3)c(C)c1` [Compound 275], the midpoint of the response, the EC50, lay at 15 nM.

`Cc1ccc(-c2c(C)c3c(c(C)c2[C@H](OC(C)(C)C)C(=O)O)N(S(C)(=O)=O)Cc2cccc(F)c2-3)c(C)c1` [Compound 278] had an EC50 of 3.7 nM.

`Cc1ccc(-c2c(C)c3c(c(C)c2[C@H](OC(C)(C)C)C(=O)O)N(S(C)(=O)=O)Cc2cc(C#N)ccc2-3)cc1` [Compound 279] gave an EC50 of 11 nM.

`Cc1c(-c2ccc3c(c2F)NCCO3)c([C@H](OC(C)(C)C)C(=O)O)c(C)c2c1-c1c(F)cccc1CN2S(C)(=O)=O` [Compound 282] returned an EC50 of 8.8 nM.

`Cc1ccc(-c2c(C)c3c(c(C)c2[C@H](OC(C)(C)C)C(=O)O)N(S(C)(=O)=O)Cc2cc(F)cnc2-3)cc1` [Compound 284] showed an EC50 of 16 nM.

`Cc1ccc(-c2c(C)c3c(c(C)c2[C@H](OC(C)(C)C)C(=O)O)N(S(C)(=O)=O)CC2CCCCN32)cc1` (stereo partly shown) [Compound 285]: the EC50 was determined as 55 nM.

`Cc1c(-c2c(C)c3c(c(C)c2[C@H](OC(C)(C)C)C(=O)O)N(S(C)(=O)=O)Cc2cc(F)cc(F)c2-3)ccc2c1NCCO2` [Compound 286] yielded an EC50 of 3.2 nM.

In the case of `Cc1ccc(-c2c(C)c3c(c(C)c2[C@H](OC(C)(C)C)C(=O)O)N(S(C)(=O)=O)[C@@H](C)c2ccccc2-3)cc1` [Compound 287], the EC50 is 33 nM.

With `CC(=O)N1Cc2ccccc2-c2c(C)c(-c3ccc(C)cc3)c([C@H](OC(C)(C)C)C(=O)O)c(C)c21` [Compound 290], the EC50 was 53 nM.

Take `COc1ccc2c(c1F)CN(S(C)(=O)=O)c1c(C)c([C@H](OC(C)(C)C)C(=O)O)c(-c3ccc4c(c3C)NCCO4)c(C)c1-2` [Compound 293]: the EC50 amounted to 3.3 nM.

Molecule `Cc1c(-c2ccc3c(c2Cl)NCCO3)c([C@H](OC(C)(C)C)C(=O)O)c(C)c2c1-c1c(F)ccc(F)c1CN2S(C)(=O)=O` [Compound 296] showed an EC50 below 7.8 nM.

Still in this assay, the particulars now being: Human immunodeficiency virus 1, MT4, 96 h, Table A-7, four days.
With `Cc1c(-c2ccc(Cl)cc2O)c([C@H](OC(C)(C)C)C(=O)O)c(C)c2c1-c1c(F)cccc1CN2S(C)(=O)=O` [Compound 324], the EC50 was found to be 8.1 nM.

With `Cc1c(-c2c(C)c3c(c(C)c2[C@H](OC(C)(C)C)C(=O)O)N(S(C)(=O)=O)Cc2cccc(F)c2-3)ccc(Cl)c1N` [Compound 327], a half-maximal effect (EC50) was put at 7.2 nM.

Molecule `COc1ccc(-c2c(C)c3c(c(C)c2[C@H](OC(C)(C)C)C(=O)O)N(S(C)(=O)=O)Cc2c(F)ccc(F)c2-3)c(C)n1` [Compound 329] returned an EC50 of 39 nM.

The molecule `Cc1ccc(-c2c(C)c3c(c(C)c2[C@H](OC(C)(C)C)C(=O)O)N(S(C)(=O)=O)Cc2cc(N)ncc2-3)c(C)c1` [Compound 330] returned an EC50 of 53 nM.

The molecule `Cc1c(-c2ccc(F)cc2O)c([C@H](OC(C)(C)C)C(=O)O)c(C)c2c1-c1c(F)ccc(F)c1CN2S(C)(=O)=O` [Compound 332] returned an EC50 of 24 nM.

Take `Cc1ccc(-c2c(C)c3c(c(C)c2[C@H](OC(C)(C)C)C(=O)O)N(S(N)(=O)=O)Cc2c(F)ccc(F)c2-3)cc1` [Compound 333]: the EC50 was 19 nM.

The same assay, now with this note: Table A-5, four days.
Consider `Cc1ccc(-c2c(C)c3c(c(C)c2[C@H](OC(C)(C)C)C(=O)O)N(S(C)(=O)=O)CC2CCCCN32)cc1` (stereo partly shown) [Compound 288], for which the EC50 worked out at 37 nM.

Staying with this assay, now noted: Table A-7, four days.
Molecule `Cc1c(-c2ccc(Cl)cc2)c([C@H](OC(C)(C)C)C(=O)O)c(C)c2c1-c1ncc(F)cc1CN2S(C)(=O)=O` [Compound 325] showed an EC50 of 11 nM.

With `Cc1c(-c2ccccc2)c([C@H](OC(C)(C)C)C(=O)O)c(C)c2c1-c1ncc(F)cc1CN2S(C)(=O)=O` [Compound 326], the EC50 was 54 nM.
